Assay results reported in the NIST ThermoML archive (doi:10.1016/j.fluid.2016.08.015).
± gives the expanded uncertainty stated by the source.

Assays:
[1] = refractive index (Na D-line) (dimensionless); settings: 293.15 K; 101.33 kPa; Liquid; Standard Abbe refractometry
[2] = Liquid; for mass density: 293.15 K, 101.33 kPa, Vibrating tube method; for vapor or sublimation pressure: 298 K, Gas chromatography

Compound | refractive index [1] | mass density [2] | vapor or sublimation pressure [2]
FC(F)(F)C(F)(F)C(F)(F)C(F)(F)C(F)(F)C(F)(F)C(F)(F)C(F)(F)C(F)(F)F [eicosafluorononane] | 1.275 ± 0.001 | 1798 ± 1 kg/m3 | 2.57 ± 0.27 kPa
FC(F)(F)C(F)(F)C(F)(F)C(F)(F)C(F)(F)C(F)(F)C(F)(F)F [hexadecafluoroheptane] | 1.261 ± 0.001 | 1717 ± 1 kg/m3 | 10.12 ± 0.79 kPa
